Experimental data as given in patent US20190256502A1, “ORGANIC COMPOUNDS” (HOX THERAPEUTICS LIMITED, priority 2016, published 2019).
Read-outs that look alike come from different tables or passages of the source.

Experiments:
MDA-MB-231 cells = experiment: MTT assay for cell killing, breast cancer cell line MDA-MB-231; format: cell-based; conditions: for IC50: Homo sapiens, MDA-MB-231, MTT, 72h
Protocol: The cytotoxicity of the peptides on the prostate cancer derived cell lines DU145, LnCaP, and PC3, and the breast cancer derived cell line MDA-MB-231 was tested as previously described (Morgan et al. 2014 ibid), using the MTT (3-[4,5-dimethylthiazol-2-yl]-2,5-diphenyltetrazolium bromide) assay for metabolic activity. 7000-16000 cells, depending on the cell line, were seeded onto 96-well cell plate and treated with 5, 10, 20, 40 and 80 μM of each compound for 72h, DMSO alone (negative control) for 72 hr, or HTL001 ([…]; International patent application published as WO2017068353; positive control) for 2 h. After treatment, MTT at a final concentration of 0.5 mg/ml was added. Upon 4h incubation the formed formazan crystals were dissolved in DMSO and the optical density (OD) measured at 540 nm with a spectrofluorimeter. Percentage of cell survival was calculated as a ratio of the mean OD value of treated vs. untreated cells. Experiments were repeated 3 times and statistical analysis performed using Student's t-test. All cell lines were cultured in RPMI media with added 10% FBS, 1% sodium pyruvate and 1% L-Glutamine. They were all cultured in an incubator at 37° C., 5% CO2. The assay was repeated 3 times and the results are given as the mean IC50 for cell killing±standard deviation.
The molecules were tested for their ability to induce cell death using the breast cancer cell line MDA-MB-231, with the HOX/PBX interfering peptide HTL001 (WYKWMKKAARRRRRRRRR; International patent application published as WO2017068353) as a positive control and DMSO as a negative control. Percentage of cell survival was evaluated with the MTT assay after treatment with different concentrations ([…], 10, 20, 40 and 80 μM) of each compound for 72h. The IC50 was evaluated as the concentration of the compound that reduces % of cell survival by half.
MDA-MB-231 cells were treated with different concentrations of Example 2 dissolved in either DMSO or PEG/Tris HCl and MTT assay performed. Data are means±SEM of four independent experiments.

cFOS [1] = experiment: cFOS expression in MDA-MB-231 cells (qRT-PCR); format: cell-based; conditions: for fold induction at 33 µM: Homo sapiens, qRT-PCR; for fold induction at 33 µM / cFos expression compared to untreated MDA-MB-231 cells: MDA-MB-231 cells, 2h, 33 μM
Protocol: MDA-MB-231 cells were seeded in 25 cm^2 plates and treated for 2h with 33 μM of each compound at 80% confluence. RNA was isolated using RNeasy Mini Kit-QIAGEN according to manufacturer's instructions and quantified with NanoDrop ND-1000. cDNA was generated from 1 μg of total RNA using High Capacity cDNA Reverse Transcription Kit in a 25 μl final reaction volume according to the manufacturer protocol. The expression of cFOS was quantified by qRT-PCR. Real-time PCR reactions were performed using 1:10 dilution (5 μl/well) of each cDNA added to TaqMan Universal PCR Master Mix and TaqMan Gene Expression Assay Hs00170630_m1 FOS. Amplification of glyceraldehyde 3-phosphate dehydrogenase (GAPDH) probe was performed as endogenous control. The comparative Ct method (ΔΔCt algorithm) was used for analysis. Independent experiments were performed in triplicates and repeated three times. Statistical analysis was performed with Student's t-test.
MDA MB 231 cells were treated for 4h with 4×IC50 Example 2 in PEG/Tris HCl. RNA was isolated and RT-PCR performed to detect expression of cFOS. Data are means±SEM of four independent experiments. Significance to PEG/Tris HCl: **p<0.01 (Ttest).

Solubility studies = format: physicochemical
Text: Example 2 was solubilised in PEG400 and propylene glycol (PG).

DUSP1 [2] = experiment: DUSP1 expression in PC3 prostate cancer cells (RT-PCR); format: cell-based; conditions: 4h, 120 μM in PEG/Tris HCl
Protocol: (§1) PC3 cells were treated for 4h with 120 μM Example 2 in PEG/Tris HCl. RNA was isolated and RT-PCR performed to detect expression of cFOS and DUSP1. Data are means±SEM of three independent experiments. Significance to PEG/Tris HCl: **p<0.01, ***p<0.001 (Ttest).

cFOS [3] = experiment: cFOS expression in DU145 prostate cancer cells (RT-PCR); format: cell-based; conditions: 4h, 120 μM in PEG/Tris HCl
Protocol: (§2) DU145 cells were treated for 4h with 120 μM Example 2 in PEG/Tris HCl. RNA was isolated and RT-PCR performed to detect expression of cFOS and DUSP1. Data are means±SEM of three independent experiments. *p<0.05 (Ttest).

DUSP1 [4] = experiment: DUSP1 expression in DU145 prostate cancer cells (RT-PCR); format: cell-based; conditions: 4h, 120 μM in PEG/Tris HCl
Protocol: as §2

MDA-MB-231 tumour = experiment: In vivo study, MDA-MB-231 tumour in Balb-c nude mice; conditions: 20 mg/Kg, IP, day 0, 3, 6, 9, 10 & 13
Protocol: MDA-MB-231 cells were injected subcutaneously into female or male Balb-c nude mice aged 6 to 12 weeks (Harlan, UK). When the tumour size reached 100 mm^3 mice were injected intratumouraly with Example 2 at the intervals shown on the graph. Mice were sacrificed when the tumour size reached 1000 mm^3 or at the end of the experiment (14 days).
Treatment of MDA-MB-231 tumour with Example 2 (ICT9119): Group 1—Untreated controls Group 2—10% DMSO/Oil solvent control, IP, day 0, 3, 6, 9, 10 & 13 Group 3—Example 2, 20 mg/Kg, IP, day 0, 3, 6, 9, 10 & 13

cFOS [5] = experiment: cFOS expression in PC3 prostate cancer cells (RT-PCR); format: cell-based; conditions: 4h, 120 μM in PEG/Tris HCl
Protocol: as §1

HOXB4/PBX2 dimers = target: T1, HOXB4/PBX2 dimers (Homo sapiens, UniProt P40425); experiment: Cell based ELISA assay for HOX/PBX binding (HOXB4/PBX2 dimer assay); conditions: MDA-MB-231 cells treated with 10 μM for 4 hours; compared to negative control (DMSO); read-out: % inhibition of HOXB4/PBX2 dimer formation
T1 construct: endogenous in cells; host or cells: MDA-MB-231
T1 sequence (P40425 1-430): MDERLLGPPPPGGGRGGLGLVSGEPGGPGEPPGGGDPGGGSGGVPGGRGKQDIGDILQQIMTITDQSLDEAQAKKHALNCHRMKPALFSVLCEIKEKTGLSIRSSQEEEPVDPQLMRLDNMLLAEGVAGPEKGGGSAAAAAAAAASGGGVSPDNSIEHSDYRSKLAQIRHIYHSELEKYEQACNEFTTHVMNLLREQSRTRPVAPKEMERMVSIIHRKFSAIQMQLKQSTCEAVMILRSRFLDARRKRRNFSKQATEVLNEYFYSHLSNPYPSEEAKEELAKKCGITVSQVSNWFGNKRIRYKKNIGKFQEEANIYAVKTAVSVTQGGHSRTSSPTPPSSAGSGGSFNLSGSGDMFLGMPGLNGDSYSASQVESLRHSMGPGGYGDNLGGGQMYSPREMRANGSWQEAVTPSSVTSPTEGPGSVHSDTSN
Protocol: In order to directly assess the ability of each compound to disrupt HOX/PBX binding a cell-based assay system was developed that could allow the formation of HOX/PBX/DNA dimers. Cultured MDA-MB-231 cells were treated with 10 μM of each compound for 4 hours and then used to generate a cell lysate using a standard preparation method as described below. HOXB4/PBX2 dimers were then measured using an ELISA-based system as detailed in the table below. The values from this assay are expressed as % inhibition of dimer formation compared to a negative control (DMSO).
1. Collect approximately 5.0×10^7 cells by low-speed centrifugation at RT for 5 min. Carefully remove culture medium. 2. Wash the cellular debris (pellet) with PBS at RT, and collect by low-speed centrifugation. Carefully remove supernatant (total protein). 3. Add 1.0 ml of pre-cold RIPA buffer (or other appropriate buffer) with freshly added (Protease Inhibitors) and/or (Phosphatase Inhibitors). Gently resuspend cells in RIPA buffer with a pipet and incubate on ice for 30 min. 4. Further disrupt and homogenize cells by passing through a 21-gauge needle, dounce homogenization or sonication, taking care not to raise the temperature of the lysate. (Optional: Add 10 μl of 10 mg/ml PMSF stock) Incubate 30 min on ice. 5. Transfer to microcentrifuge tube(s) and centrifuge at 10,000×g for 10 min at 4° C. […]

[6] = no induced cell death observed at 80 μM, read-out: IC50 values for the urea analogue reference examples
[7] = average of experiments, read-out: IC50 Average
[8] = single experiment 1, read-out: IC50 Exp1
[9] = single experiment 2, read-out: IC50 Exp2
[10] = MDA-MB-231 tumour in Balb-c nude mice
[11] = single experiment 3, read-out: IC50 Exp3
[12] = single experiment 4, read-out: IC50 Exp4

Row | SMILES | IC50 (MDA-MB-231 cells; [6]) [µM] | IC50 (MDA-MB-231 cells; [7]) [µM] | IC50 (MDA-MB-231 cells; [8]) [µM] | IC50 (MDA-MB-231 cells; [9]) [µM] | IC50 (MDA-MB-231 cells; [11]) [µM] | other results
1 | C#CCNC(=O)NCC(c1cccs1)c1c[nH]c2ccccc12 (stereo not shown) [A, reference compound] | > 80 |  |  |  |  | 
2 | O=C(NCC1CC1)NCC(c1cccs1)c1c[nH]c2ccccc12 (stereo not shown) [B, reference compound] | > 80 |  |  |  |  | 
3 | CCCNC(=O)NCC(c1ccsc1)c1c[nH]c2ccccc12 (stereo not shown) [C, reference compound] | > 80 |  |  |  |  | 
4 | C=C(C)CNC(=O)NCC(c1ccsc1)c1c[nH]c2ccccc12 (stereo not shown) [D, reference compound] | > 80 |  |  |  |  | 
5 | CCCCCCCNC(=S)NCC(c1cccs1)c1c[nH]c2ccccc12 (stereo not shown) [Example 1, 1-heptyl-3-[2-(1H-indol-3-yl)-2-(2-thienyl)ethyl]thiourea] |  | 33 | 21.8 | 44.3 |  | fold induction at 33 µM (cFOS [1]): 32.5; cFos expression compared to untreated MDA-MB-231 cells (cFOS [1]): significant increase
6 | CCCCCCNC(=S)NCC(c1cccs1)c1c[nH]c2ccccc12 (stereo not shown) [Example 2, 1-hexyl-3-[2-(1H-indol-3-yl)-2-(2-thienyl)ethyl]thiourea] |  | 37.9 | 36.7 | 39 |  | behaviour on dilution with water (Solubility studies; diluted with water with polysorbate 80 (Tween 80) at a final concentration of 5%): remained in solution; concentration achieved in propylene glycol (PG) (Solubility studies; solubilised in PG): up to 5 mg/mL; DUSP1 expression in PC3 cells (DUSP1 [2]): significantly increased; cFOS expression in DU145 cells (cFOS [3]): significantly increased; MDA-MB-231 cell survival, in PEG/Tris HCl in comparison with in DMSO (MDA-MB-231 cells; MTT assay, four independent experiments, p<0.05): significantly decreased; DUSP1 expression in DU145 cells (DUSP1 [4]): significantly increased; Maximum % weight loss (MDA-MB-231 tumour; Balb-c nude mice): 0%; Growth delay (MDA-MB-231 tumour; [10]): 4.2 days; Median time RTV 2 (MDA-MB-231 tumour; [10]): 8.9 days; cFOS expression in PC3 cells (cFOS [5]): significantly increased; cFOS expression in MDA-MB-231 cells (cFOS [1]; 4h, 4×IC50, in PEG/Tris HCl, p<0.01 to PEG/Tris HCl): significantly increased
7 | CCCCCNC(=S)NCC(c1cccs1)c1c[nH]c2ccccc12 (stereo not shown) [Example 3, 1-pentyl-3-[2-(1H-indol-3-yl)-2-(2-thienyl)ethyl]thiourea] |  | 35.3 | 21.3 | 49.2 |  | 
8 | S=C(NCC1CCCCC1)NCC(c1cccs1)c1c[nH]c2ccccc12 (stereo not shown) [Example 4, 1-cyclohexylmethyl-3-[2-(1H-indol-3-yl)-2-(2-thienyl)ethyl]thiourea] |  | 53 | 65.8 | 40.3 |  | 
9 | C=C(C)CNC(=S)NCC(c1cccs1)c1c[nH]c2ccccc12 (stereo not shown) [Example 5] |  | 45.5 | 47.9 | 45 | 43.7 | inhibition at 10 µM (HOXB4/PBX2 dimers): 39.2%; fold induction at 33 µM (cFOS [1]): 37.4; cFos expression compared to untreated MDA-MB-231 cells (cFOS [1]): significant increase
10 | CNC(=S)NCC(c1cccs1)c1c[nH]c2ccccc12 (stereo not shown) [Example 6] |  | 61.6 | 68 | 48 | 68.9 | 
11 | CCNC(=S)NCC(c1cccs1)c1c[nH]c2ccccc12 (stereo not shown) [Example 7] |  | 60.9 | 51.8 | 65.8 | 65 | 
12 | CCCNC(=S)NCC(c1cccs1)c1c[nH]c2ccccc12 (stereo not shown) [Example 8] |  | 51.9 | 42.7 | 48.6 | 56.1 | IC50 (MDA-MB-231 cells; [12]): 59.9 µM
13 | CCCCNC(=S)NCC(c1cccs1)c1c[nH]c2ccccc12 (stereo not shown) [Example 9] |  | 41.2 | 40.9 | 37.3 | 29.8 | IC50 (MDA-MB-231 cells; [12]): 41 µM; IC50 (MDA-MB-231 cells; single experiment 5, read-out: IC50 Exp5): 57.2 µM
